Results from US10054581B1, “Inhibitors of notch signaling pathway and use thereof in treatment of cancers” (Ecole Polytechnique Federale de Lausanne (EPFL), priority 2011, dated 2018).
Entries after “also recorded” stand apart in the source; their conditions may differ.

Experiments:
[1] = test system: Notch target genes Hes1, cMyc and Dtx1; NICD; assay: Notch target gene expression in human cancer cell lines (qRT-PCR, Western blot); assay type: cell-based
Protocol: Total RNA was extracted from cells using TRIzol® extraction kit (Invitrogen). Briefly, 1×10^6 cells were washed with ice-cold 1×PBS and lysed in 1 ml of TRIzol® solution for 5 minutes at room temperature to dissociate nucleoprotein complexes. Lysed cells were then treated with 200 μl of chloroform and shaked vigorously for 15-30 seconds and incubated at room temperature for 2-3 minutes. The samples were centrifuged at 14000 rpm using Eppendorf table top centrifuge for 10 minutes at 4° C. Following centrifugation, upper aqueous phase was transferred to new eppendorf tubes. […]
Total RNA extracted from the cell was used to synthesize cDNA by reverse transcription reaction. […] RNA concentration was measured using NanoDrop®ND-1000 spectrophotometer (Witec AG) and 500 ng of total RNA was mixed with a 10 mM mix of dNTPs and 100 ng of random primers. […]
Cells were lysed in RIPA buffer (50 mM Tris.Cl, pH 7.5, 150 mM NaCl, 1% nonidet P-40, 0.5% sodium deoxycholate and 0.1% SDS) for 30 minutes at 4° C. […] The protein concentration was determined by Bradford assay using spectrophotometer (Ultrospec 3000 pro). […]
For immunoblotting, membranes were blocked with 5% milk and incubated overnight with primary antibodies at 4° C. […] Signal was detected with Super Signal West chemiluminescent substrate (Thermo Scientific, catalog number 34077). […]

[2] = target: T1, NICD, MAML1 and CSL/RBP-jk (Homo sapiens, UniProt P46531+Q06330+Q92585); assay: Microscopy of NICD-GFP, MAML1-FLAG and CSL/RBP-jk localization in HeLa cells; assay type: cell-based
T1 construct: expressed in transfected cells; host or cells: HeLa cells (NICD-GFP and MAML1-FLAG transfected; CSL/RBP-jk endogenous)
T1 sequence (P46531 1754-2555 limits assumed): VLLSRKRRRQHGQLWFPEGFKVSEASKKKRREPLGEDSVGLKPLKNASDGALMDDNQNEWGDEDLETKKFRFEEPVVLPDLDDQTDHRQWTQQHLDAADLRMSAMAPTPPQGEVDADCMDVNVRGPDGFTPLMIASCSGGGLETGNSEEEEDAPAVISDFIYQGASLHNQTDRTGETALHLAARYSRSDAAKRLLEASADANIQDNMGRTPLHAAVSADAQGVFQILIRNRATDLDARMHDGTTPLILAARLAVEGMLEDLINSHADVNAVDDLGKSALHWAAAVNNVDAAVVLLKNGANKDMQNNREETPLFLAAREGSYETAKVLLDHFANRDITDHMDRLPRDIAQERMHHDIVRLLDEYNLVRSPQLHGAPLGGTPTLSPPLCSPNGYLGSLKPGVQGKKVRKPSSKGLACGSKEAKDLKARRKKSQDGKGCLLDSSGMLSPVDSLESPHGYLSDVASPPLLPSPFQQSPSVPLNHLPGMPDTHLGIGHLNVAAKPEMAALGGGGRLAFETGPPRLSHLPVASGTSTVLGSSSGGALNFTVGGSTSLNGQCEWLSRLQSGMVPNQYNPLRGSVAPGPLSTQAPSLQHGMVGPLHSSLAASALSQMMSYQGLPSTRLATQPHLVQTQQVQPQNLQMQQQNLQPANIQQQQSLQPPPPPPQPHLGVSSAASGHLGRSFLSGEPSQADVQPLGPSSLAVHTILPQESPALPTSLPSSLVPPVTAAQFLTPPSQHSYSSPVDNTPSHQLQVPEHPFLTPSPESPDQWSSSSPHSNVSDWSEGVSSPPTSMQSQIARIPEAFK
T1 sequence (Q92585 whole entry): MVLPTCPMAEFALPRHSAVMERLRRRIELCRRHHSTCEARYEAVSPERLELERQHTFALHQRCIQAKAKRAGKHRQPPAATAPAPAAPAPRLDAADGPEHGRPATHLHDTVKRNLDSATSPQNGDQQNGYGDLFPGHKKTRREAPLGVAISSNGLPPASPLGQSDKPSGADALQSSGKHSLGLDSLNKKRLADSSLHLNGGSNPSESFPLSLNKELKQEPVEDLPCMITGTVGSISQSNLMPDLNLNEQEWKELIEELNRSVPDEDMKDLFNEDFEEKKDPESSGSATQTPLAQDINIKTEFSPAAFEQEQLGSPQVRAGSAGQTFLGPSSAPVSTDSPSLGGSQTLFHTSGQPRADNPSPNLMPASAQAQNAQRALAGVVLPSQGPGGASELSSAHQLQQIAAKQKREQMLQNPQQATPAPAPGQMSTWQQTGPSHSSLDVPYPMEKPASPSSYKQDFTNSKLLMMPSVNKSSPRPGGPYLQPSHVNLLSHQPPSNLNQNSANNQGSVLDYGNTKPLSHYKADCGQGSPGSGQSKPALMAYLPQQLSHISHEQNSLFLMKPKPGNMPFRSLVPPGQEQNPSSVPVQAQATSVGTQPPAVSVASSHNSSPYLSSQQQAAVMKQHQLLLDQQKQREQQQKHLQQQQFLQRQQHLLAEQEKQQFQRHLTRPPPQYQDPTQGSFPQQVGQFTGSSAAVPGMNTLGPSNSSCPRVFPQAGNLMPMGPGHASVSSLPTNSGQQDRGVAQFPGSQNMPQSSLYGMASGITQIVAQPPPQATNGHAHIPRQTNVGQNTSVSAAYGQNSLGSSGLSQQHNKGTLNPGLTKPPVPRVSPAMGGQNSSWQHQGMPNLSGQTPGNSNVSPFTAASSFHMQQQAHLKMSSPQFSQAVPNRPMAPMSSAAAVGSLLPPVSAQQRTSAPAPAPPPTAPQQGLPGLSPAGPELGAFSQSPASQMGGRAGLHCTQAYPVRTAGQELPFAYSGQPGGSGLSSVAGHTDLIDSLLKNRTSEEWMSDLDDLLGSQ
T1 sequence (Q06330 whole entry): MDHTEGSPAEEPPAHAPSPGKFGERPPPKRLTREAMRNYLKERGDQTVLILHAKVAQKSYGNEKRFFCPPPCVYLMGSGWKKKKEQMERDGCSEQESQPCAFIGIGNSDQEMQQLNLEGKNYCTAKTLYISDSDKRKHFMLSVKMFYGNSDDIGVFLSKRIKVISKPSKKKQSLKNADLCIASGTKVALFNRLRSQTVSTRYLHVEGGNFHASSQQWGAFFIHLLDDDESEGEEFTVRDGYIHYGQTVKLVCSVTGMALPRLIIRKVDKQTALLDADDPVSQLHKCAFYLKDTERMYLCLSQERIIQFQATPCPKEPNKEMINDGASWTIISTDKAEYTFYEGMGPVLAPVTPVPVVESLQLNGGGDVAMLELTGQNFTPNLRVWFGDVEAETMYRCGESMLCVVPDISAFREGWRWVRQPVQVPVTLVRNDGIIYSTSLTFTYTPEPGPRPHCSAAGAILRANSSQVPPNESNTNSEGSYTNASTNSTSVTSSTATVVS
Protocol: To perform immunofluorescence staining, HeLa cells or C2C12 cells were grown on cover slips. Cells were washed with 1× ice-cold PBS, fixed with 4% PFA for 5 minutes at room temperature and permeabilized using 0.3% Triton X-100. Subsequently permeabilized cells were blocked for 20 minutes with 1% BSA for 20 minutes at room temperature. Cells were incubated with appropriate primary antibodies for […] at room temperature. Alexa Fluor-488 conjugated secondary antibodies were used to detect primary antibodies. Cells were counterstained with DAPI and mounted in fluorescent mounting media. Fluorescent images were viewed and captured using Zeiss Axioplan microscope at Bioimaging and optics core facility at EPFL.
This raises several possibilities about the mechanism of action of 6-(4-Tert-Butylphenoxy)Pyridin-3-Amine (I3). For example, 6-(4-Tert-Butylphenoxy)Pyridin-3-Amine (I3) treatment could impair nuclear localization of the NICD. A second possible mechanism of inhibition could be targeting of one or more individual components of the transcriptional activation complex in the nucleus. […] In parallel, the 6-(4-Tert-Butylphenoxy)Pyridin-3-Amine (I3) mediated pathway inhibition was determined by Notch driven luciferase measurement (data not shown). […]

For `CC(C)(C)c1ccc(Oc2ccc(N)cn2)cc1` [I3, 6-(4-Tert-Butylphenoxy)Pyridin-3-Amine], the NICD protein levels ([1]; RPMI 8402, HPB ALL, KOPTK1, 24 hours, Western blot) was “reduced levels of NICD”, the “expression of Notch target genes Hes1, cMyc and Dtx1 (mRNA and protein)” value ([1]; RPMI 8402, HPBALL, KOPTK1 and PANC1, 24 hours) was “induced a statistically significant downregulation of Notch target genes; also recorded: inhibits Notch signalling and downregulates its target genes in human cancer cell lines; also recorded: downregulation of Notch target genes in human T-ALL cell lines” and the “co-localization of NICD, MAML1 and CSL/RBP-jk in sub-nuclear compartments” value ([2]; 800 ng NICD-GFP + 1 μg MAML1-FLAG, I3 10 μM, 24 hours) was “did not perturb the translocation and co-localization of NICD-GFP and MAML1 into sub-nuclear compartment; also recorded: did not perturb their distribution in the nucleus; also recorded: does not impede co-localization of NICD, MAML1 and CSL/RBP-jk in the sub-nuclear compartments”. The “nuclear localization of NICD-GFP” value ([2]; HeLa cells transfected with NICD-GFP) was “not perturbed; also recorded: did not alter its nuclear localization”.
